Source: patent US9750701B2, “Pharmaceutical dosage form” (GRÜNENTHAL GMBH, priority 2008, dated 2017)
Read-outs that look alike come from different tables or passages of the source.

Assay: pharmacokinetic data of tapentadol formulation (blood plasma concentrations)
Type: in vivo, patients/test subjects
Conditions: human, formulation containing tapentadol; for AUC(0-inf): read-out: AUC0-∞ (total area under the curve); for half-life: read-out: t1/2 (half-life) (converted)
Source text: For the purposes of the description, the pharmacokinetic parameters, which may be determined from the blood plasma concentrations of the pharmacologically active compound (A), are defined as follows: […]
The above parameters are in each case stated as mean values of the individual values for all investigated patients/test subjects.
In a particularly preferred embodiment the pharmacologically active compound (A) is tapentadol or a physiologically acceptable salt thereof and the pharmaceutical dosage form according to the invention is bioequivalent to a formulation that contains tapentadol or a physiologically acceptable salt thereof in a dosage of 200 mg and 250 mg, respectively, and is characterized by the following pharmacokinetic data: […]

CC[C@@H](c1cccc(O)c1)[C@@H](C)CN(C)C [tapentadol]
Cmax (dosage 200 mg): 0.0625 µg/mL | Tmax (dosage 200 mg): 5 h | AUC(0-inf) (dosage 200 mg): 0.825 µg·h/mL | half-life (dosage 200 mg): 5.2 h | Cmax (dosage 250 mg): 0.0893 µg/mL | Tmax (dosage 250 mg): 5 h | AUC(0-inf) (dosage 250 mg): 1.1 µg·h/mL | half-life (dosage 250 mg): 5.4 h
